Assay results taken from US12187727B2, “Methods for antagonizing a melanocortin 4 receptor” (Pfizer Inc., priority 2020, dated 2025).
Like-named read-outs stand apart in the source and are kept apart here.

Target: human Melanocortin-4 receptor (MC4R) (Homo sapiens (Human), UniProt P32245)
Assay: Functional in vitro MC4R antagonist potency assay (cAMP HTRF in CHO cells)
Type: cell-based
Procedure: Example BB. Functional In Vitro MC4R Antagonist Potency Assay
The functional in vitro antagonist potency for test compounds was determined by monitoring intracellular cyclic adenosine monophosphate (cAMP) levels in Chinese hamster ovary (CHO—) cells stably expressing the human Melanocortin-4 receptor (MC4R). Following agonist activation, human MC4R associates with the G-protein complex causing the Gα subunit to exchange bound GDP for GTP, followed by dissociation of the Ga-GTP complex. The activated Gα subunit can couple to downstream effectors to regulate the levels of second messengers or cAMP within the cell. Thereby, determination of intracellular cAMP levels allows for pharmacological characterization. Intracellular cAMP levels are quantitated using a homogenous assay utilizing the Homogeneous Time-Resolved Fluorescence (HTRF) technology from CisBio. The method is a competitive immunoassay between native cAMP produced by cells and the cAMP labelled with the acceptor dye, d2. The two entities then compete for binding to a monoclonal anti-cAMP antibody labeled with cryptate. The specific signal is inversely proportional to the concentration of cAMP in the cells.
Test compounds were solubilized to 30 mM in 100% dimethyl sulfoxide (DMSO) and stored. […] The final compound concentration range in the assay was 400 nM to […], with a final DMSO concentration of 0.1%.
(95% O2: 5% CO2) overnight, with micro-clime lids (Labcyte, Cat No. LLS-0310). […] Cells were incubated with compound for 30 minutes at 37° C. (95% O2: 5% CO2) before addition of 5 μL EC80, agonist stimulation (200 nM α-melanocyte stimulating hormone, aMSH, Bachem) and another 30-minute incubation at 37° C. (95% O2: 5% CO2). Intracellular cAMP levels were quantified as per Cisbio's protocol (5 uL of D2 and then 5 uL Cryptate, incubated for 1-2 hours at room temperature).
Data expressed as nM cAMP were then normalized to control wells using Activity Base (IDBS). Zero percent effect (ZPE) was defined as nM of cAMP generated from ECK, agonist stimulation (200 nM aMSH). In the absence of an antagonist control compound, one hundred percent effect (HPE) was defined as nM of cAMP generated from assay buffer/vehicle only.

[1] = read-out: Kb (nM) Antagonist geometric mean
[2] = human MC4R in CHO cells, cAMP HTRF, 200 nM aMSH challenge, Kb from IC50 by Leff-Dougall equation, geometric mean, read-out: Kb (nM) Antagonist geometric

Chain of human Melanocortin-4 receptor (MC4R) (P32245 whole entry): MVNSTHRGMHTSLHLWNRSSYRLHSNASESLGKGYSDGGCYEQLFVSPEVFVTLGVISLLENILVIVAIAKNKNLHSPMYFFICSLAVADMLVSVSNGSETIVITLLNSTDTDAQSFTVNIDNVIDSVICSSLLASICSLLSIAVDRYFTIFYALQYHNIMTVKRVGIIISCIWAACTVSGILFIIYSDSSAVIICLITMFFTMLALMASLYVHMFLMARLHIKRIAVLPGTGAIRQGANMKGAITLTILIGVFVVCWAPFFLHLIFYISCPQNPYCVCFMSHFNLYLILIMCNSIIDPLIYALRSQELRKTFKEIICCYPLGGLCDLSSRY

SMILES | Kb [1] [nM] | Kb [2] [nM]
COc1cc([C@@H](C)C(=O)N2CC[C@@]3(CCc4cc(-c5nc(C(F)F)n(C6CC6)n5)c(C)nc4N3)C2)c(F)cn1 [Example 189, (2R)-1-{(2S)-6-[1-cyclopropyl-5-(difluoromethyl)-1H-1,2,4-triazol-3-yl]-7-methyl-3,4-dihydro-1H-spiro[1,8-naphthyridine-2,3′-pyrrolidin]-1′-yl}-2-(5-fluoro-2-methoxypyridin-4-yl)propan-1-one] |  | 4.3
COc1cnc(-c2cc3c(nc2C)N[C@@]2(CC3)CCN(C(=O)[C@H](C)c3cc(OC)ncc3F)C2)nc1 [Example 67, (2R)-2-(5-fluoro-2-methoxypyridin-4-yl)-1-[(2S)-6-(5-methoxypyrimidin-2-yl)-7-methyl-3,4-dihydro-1H-spiro[1,8-naphthyridine-2,3′-pyrrolidin]-1′-yl]propan-1-one] | 14 | 
COc1cc([C@@H](C)C(=O)N2CC[C@]3(CCc4cc(-c5nnn(C)n5)c(C)nc4N3)C2)c(F)cn1 [Example 116, (2R)-2-(5-fluoro-2-methoxypyridin-4-yl)-1-[(2R)-7-methyl-6-(2-methyl-2H-tetrazol-5-yl)-3,4-dihydro-1H-spiro[1,8-naphthyridine-2,3′-pyrrolidin]-1′-yl]propan-1-one] |  | 1.7
COc1cc([C@@H](C)C(=O)N2CC[C@@]3(CCc4cc(-c5cnc(C)cn5)c(C)nc4N3)C2)c(F)cn1 [Example 158, (2R)-2-(5-fluoro-2-methoxypyridin-4-yl)-1-[(2S)-7-methyl-6-(5-methylpyrazin-2-yl)-3,4-dihydro-1H-spiro[1,8-naphthyridine-2,3′-pyrrolidin]-1′-yl]propan-1-one] |  | 23
COc1cc([C@@H](C)C(=O)N2CC[C@@]3(CCc4cc(-c5nccnc5C)c(C)nc4N3)C2)c(F)cn1 [Example 164, (2R)-2-(5-fluoro-2-methoxypyridin-4-yl)-1-[(2S)-7-methyl-6-(3-methylpyrazin-2-yl)-3,4-dihydro-1H-spiro[1,8-naphthyridine-2,3′-pyrrolidin]-1′-yl]propan-1-one] |  | > 57

Continued, values first:

Kb [1] [nM] | Kb [2] [nM] | SMILES
5.5 |  | COc1cc([C@@H](C)C(=O)N2CC[C@@]3(CCc4ccc(C)nc4N3)C2)c(Cl)cn1 (single isomer, unassigned) [Example 100]
 | 0.44 | COc1cc([C@@H](C)C(=O)N2CC[C@@]3(CCc4cc(-c5cn(C(F)F)c(C)n5)c(C)nc4N3)C2)c(F)cn1 [Example 138, (2R)-1-{(2S)-6-[1-(difluoromethyl)-2-methyl-1H-imidazol-4-yl]-7-methyl-3,4-dihydro-1H-spiro[1,8-naphthyridine-2,3′-pyrrolidin]-1′-yl}-2-(5-fluoro-2-methoxypyridin-4-yl)propan-1-one]
 | 8.3 | COc1cc([C@@H](C)C(=O)N2CC[C@@]3(CCc4cc(-c5cccc(OC(F)F)n5)c(C)nc4N3)C2)c(F)cn1 [Example 198, (2R)-1-{(2S)-6-[6-(difluoromethoxy)pyridin-2-yl]-7-methyl-3,4-dihydro-1H-spiro[1,8-naphthyridine-2,3′-pyrrolidin]-1′-yl}-2-(5-fluoro-2-methoxypyridin-4-yl)propan-1-one]
 | 5.1 | COc1cc(C(C)C(=O)N2CC[C@@]3(CCc4cc(-c5nnn(C)n5)c(C)nc4N3)C2)ccn1 (single isomer, unassigned) [Example 125]
> 97 |  | COc1cc([C@H](C)C(=O)N2CC[C@@]3(CCc4cc(-c5ncccn5)c(C)nc4N3)C2)c(F)cn1 [Example 28, (2S)-2-(5-fluoro-2-methoxypyridin-4-yl)-1-[(2S)-7-methyl-6-(pyrimidin-2-yl)-3,4-dihydro-1H-spiro[1,8-naphthyridine-2,3′-pyrrolidin]-1′-yl]propan-1-one]
 | 0.06 | COc1cc([C@@H](C)C(=O)N2CC[C@@]3(CCc4cc(-c5cnn(C)c5)c(C)nc4N3)C2)c(Cl)cn1 (single isomer, unassigned) [Example 104]
